# Results: ChEMBL document CHEMBL2385007, “Synthesis and biological evaluation of prodrugs of 2-fluoro-2-deoxyribose-1-phosphate and 2,2-difluoro-2-deoxyribose-1-phosphate” (Bioorg Med Chem Lett, 2013)
# What was measured:
# [1] = Cytotoxicity against human HEL cells; format: cell-based
# [2] = Cytotoxicity against cat CRFK cells; format: cell-based, Felis catus
# CCRF-CEM = experiment: Cytotoxicity against human CEM cells; format: cell-based
# L1210 = experiment: Cytotoxicity against mouse L1210 cells; format: cell-based
# [3] = tested on: Human immunodeficiency virus 2; experiment: Antiviral activity against HIV-2 ROD infected in human CEM cells assessed as HIV-induced host giant cell formation after 4 days by microscopic analysis; format: functional, organism-based; settings: Human immunodeficiency virus 2, ISOLATE ROD, CCRF-CEM, 96 h
# [4] = tested on: Human immunodeficiency virus 1; experiment: Antiviral activity against HIV-1 3B infected in human CEM cells assessed as HIV-induced host giant cell formation after 4 days by microscopic analysis; format: functional, organism-based; settings: Human immunodeficiency virus 1, 3B, CCRF-CEM, 96 h
# Felid alphaherpesvirus 1 = experiment: Antiviral activity against Feline herpesvirus in cat CrFK cells assessed as plaque formation; format: functional, organism-based; settings: Felid alphaherpesvirus 1, CRFK
# Feline coronavirus = experiment: Antiviral activity against Feline coronavirus in cat CrFK cells assessed as plaque formation; format: functional, organism-based; settings: Alphacoronavirus 1, CRFK
# Cytomegalovirus = experiment: Antiviral activity against Cytomegalovirus Davis infected in HEL cells assessed as inhibition of virus-induced cytopathicity; format: functional, organism-based; settings: Human betaherpesvirus 5, Davis
# Human betaherpesvirus 5 = experiment: Antiviral activity against Cytomegalovirus AD-169 infected in HEL cells assessed as inhibition of virus-induced cytopathicity; format: functional, organism-based; settings: Human betaherpesvirus 5, AD169, HEL
# Human alphaherpesvirus 3 [5] = experiment: Antiviral activity against Varicellla-zoster virus 07-1 infected in HEL cells assessed as inhibition of virus-induced cytopathicity; format: functional, organism-based; settings: Human alphaherpesvirus 3, 07-1, HEL
# Human alphaherpesvirus 3 [6] = experiment: Antiviral activity against Varicellla-zoster virus Oka infected in HEL cells assessed as inhibition of virus-induced cytopathicity; format: functional, cell-based; settings: Human alphaherpesvirus 3, strain Oka vaccine
# Human alphaherpesvirus 1 [7] = experiment: Antiviral activity against thymidine kinase-deficient ACV-resistant HSV-1 KOS infected in HEL cells assessed as inhibition of virus-induced cytopathicity; format: functional, organism-based; settings: Human alphaherpesvirus 1, KOS
# [8] = tested on: Vesicular stomatitis virus; experiment: Antiviral activity against Vesicular somatitis virus infected in HEL cells assessed as inhibition of virus-induced cytopathicity; format: functional, organism-based
# Vaccinia virus = experiment: Antiviral activity against Vaccinia virus Lederle infected in HEL cells assessed as inhibition of virus-induced cytopathicity; format: functional, organism-based; settings: Orthopoxvirus vaccinia
# Human alphaherpesvirus 2 = experiment: Antiviral activity against HSV-2 G infected in HEL cells assessed as inhibition of virus-induced cytopathicity; format: functional, organism-based; settings: Human alphaherpesvirus 2, strain G
# Human alphaherpesvirus 1 [9] = experiment: Antiviral activity against HSV-1 KOS infected in HEL cells assessed as inhibition of virus-induced cytopathicity; format: functional, organism-based; settings: Human alphaherpesvirus 1, KOS
# [10] = Stability of the compound at -20 degC assessed as compound degradation after 4 months by HPLC analysis; format: physicochemical; settings: 2922 h
# [11] = Stability of the compound in fluka 82571 buffer at pH 5 assessed as compound degradation after 2 days by HPLC analysis; format: physicochemical; settings: pH 5, 48 h
# [12] = Stability of the compound in fluka 82567 buffer at pH 7 assessed as compound degradation after 2 days by HPLC analysis; format: physicochemical; settings: pH 7, 48 h
# [13] = Half life of the compound in fluka 82567 buffer at pH 7 by HPLC analysis; format: physicochemical
# [14] = Half life of the compound in fluka 82564 buffer at pH 2 by HPLC analysis; format: physicochemical
SMILES,MCC [1],CC50 [2],IC50 (CCRF-CEM),IC50 (L1210),EC50 [3],EC50 [4],EC50 (Felid alphaherpesvirus 1),EC50 (Feline coronavirus),EC50 (Cytomegalovirus),EC50 (Human betaherpesvirus 5),EC50 (Human alphaherpesvirus 3 [5]),EC50 (Human alphaherpesvirus 3 [6]),EC50 (Human alphaherpesvirus 1 [7]),EC50 [8],EC50 (Vaccinia virus),EC50 (Human alphaherpesvirus 2),EC50 (Human alphaherpesvirus 1 [9]),other results
C[C@H](NP(=O)(Oc1ccccc1)O[C@H]1O[C@H](CO)[C@@H](O)C1(F)F)C(=O)OC1CCCCC1 (mixture of isomers),≥ 100 µM,> 100 µM,> 30 µM,> 30 µM,> 250 µM,> 250 µM,> 20 µM,> 20 µM,> 20 µM,> 20 µM,> 20 µM,> 20 µM,> 20 µM,> 20 µM,> 20 µM,> 20 µM,> 20 µM,Stability [10]: Stable; Stability [11]: Stable; Stability [12]: Stable
C[C@H](NP(=O)(Oc1ccccc1)O[C@H]1O[C@H](CO)[C@@H](O)[C@@H]1F)C(=O)OC1CCCCC1 (stereo partly specified),–,–,–,–,–,–,–,–,–,–,–,–,–,–,–,–,–,t1/2 [13]: 2 h; t1/2 [14]: 1.07 h
C[C@H](NP(=O)(Oc1cccc2ccccc12)O[C@H]1O[C@H](CO)[C@@H](O)C1(F)F)C(=O)OC1CCCCC1 (stereo partly specified),≥ 100 µM,> 100 µM,> 30 µM,> 30 µM,> 50 µM,> 50 µM,> 20 µM,> 20 µM,> 20 µM,> 20 µM,> 20 µM,> 20 µM,> 20 µM,> 20 µM,> 20 µM,> 20 µM,> 20 µM,–
COC(=O)[C@@H](NP(=O)(Oc1ccccc1)O[C@H]1O[C@H](CO)[C@@H](O)C1(F)F)C(C)C (mixture of isomers),≥ 100 µM,> 100 µM,> 30 µM,> 30 µM,> 250 µM,> 250 µM,> 20 µM,> 20 µM,> 20 µM,> 20 µM,> 20 µM,> 20 µM,> 20 µM,> 20 µM,> 20 µM,> 20 µM,> 20 µM,–
